In paper PMC3265452 (PLoS Neglected Tropical Diseases, 2012):
Where a name gives a salt, the structure may show the parent alone. Residues, ends and D or L forms follow the SMILES beside them. *: point of attachment. Cbz = O=C(OCc1ccccc1)*

Biological target: AaDOP2 (Aedes aegypti, UniProt H6D5H2)
Assay: AaDOP2 antagonist screen of the LOPAC1280 library (HEK-CRELuc-Aadop2 cells, luminescence)
Type: cell-based
Conditions: not given

Sequence of AaDOP2 (H6D5H2 1-476): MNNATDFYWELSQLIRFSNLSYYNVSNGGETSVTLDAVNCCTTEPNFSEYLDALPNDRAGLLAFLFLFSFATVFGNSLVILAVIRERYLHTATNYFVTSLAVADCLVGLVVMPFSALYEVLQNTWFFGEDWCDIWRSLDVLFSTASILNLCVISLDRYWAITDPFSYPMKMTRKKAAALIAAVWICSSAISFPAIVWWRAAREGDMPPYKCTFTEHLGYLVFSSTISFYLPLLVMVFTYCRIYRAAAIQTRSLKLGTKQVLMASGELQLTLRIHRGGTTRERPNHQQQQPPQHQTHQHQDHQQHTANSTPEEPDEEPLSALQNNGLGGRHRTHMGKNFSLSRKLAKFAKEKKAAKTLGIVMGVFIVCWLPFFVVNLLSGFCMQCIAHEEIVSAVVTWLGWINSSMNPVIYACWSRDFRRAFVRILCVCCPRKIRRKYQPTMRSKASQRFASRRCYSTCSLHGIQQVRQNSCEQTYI

SMILES	Compound effect (percent receptor signaling in presence of test compound, relative lux units relative to the SCH23390 control)
CC[N+](CC)(CC)CCOc1ccc(/C=C/c2ccccc2)cc1 [Compound 757, MG 624]	89
CN[C@H](CC(=O)O)C(=O)O [Compound 758, N-Methyl-D-aspartic acid]	97
CCCCCCCCCCCCCCCCOCC(COCC(F)(F)F)OP(=O)(O)OC (stereo not shown) [Compound 760, MJ33]	77
CN1C[C@H](CNC(=O)OCc2ccccc2)C[C@@H]2c3cccc4c3c(cn4C)C[C@H]21 [Compound 761, Metergoline]	33
C#CCN(C)CCCOc1ccc(Cl)cc1Cl [Compound 763, Clorgyline hydrochloride]	96
CNc1ncnc2c1ncn2[C@H]1C[C@H](OP(=O)(O)O)[C@@H](COP(=O)(O)O)O1 [Compound 764, MRS 2179]	105
Cc1cnc(NC(=O)C2=C(O)c3ccccc3S(=O)(=O)N2C)s1 [Compound 765, Meloxicam sodium]	115
O=c1c(O)c(-c2ccc(O)cc2O)oc2cc(O)cc(O)c12 [Compound 766, Morin]	117
Nc1cc(N2CCCCC2)nc(N)[n+]1[O-] [Compound 767, Minoxidil]	110
COc1cc(CCN)ccc1O.Cl [Compound 768, 3-Methoxy-4-hydroxyphenethylamine hydrochloride]	116
Cc1ccc(Cl)c(Nc2ccccc2C(=O)O)c1Cl [Compound 769, Meclofenamic acid sodium]	107
Cc1[nH]c(=O)c(C#N)cc1-c1ccncc1 [Compound 770, Milrinone]	104
Cl.Cl.Cn1cnc(CCN)c1 [Compound 772, 1-Methylhistamine dihydrochloride]	94
CC(=O)Oc1cc(C(C)C)c(OCCN(C)C)cc1C [Compound 773, Moxisylyte hydrochloride]	33
CSC(N)=NCCC[C@H](N)C(=O)O [Compound 774, S-Methyl-L-thiocitrulline acetate]	97
COc1ccc2[nH]cc(CCNC(C)=O)c2c1 [Compound 775, Melatonin]	104
Cc1cccc(C#Cc2ccccc2)n1.Cl [Compound 778, 6-Methyl-2-(phenylethynyl)pyridine hydrochloride]	74
COCC(=O)O[C@]1(CCN(C)CCCc2nc3ccccc3[nH]2)CCc2cc(F)ccc2[C@@H]1C(C)C [Compound 779, Mibefradil dihydrochloride]	93
CNc1ncnc2c1ncn2[C@@H]1O[C@H](CO)[C@@H](O)[C@H]1O [Compound 780, N6-Methyladenosine]	80
Cc1ccccc1/C=C/C1=NCCN1 [Compound 783, Metrazoline oxalate]	91
CCCn1c(=O)c2[nH]c(-c3ccc(OCC(=O)Nc4ccc(C#N)cc4)cc3)nc2n(CCC)c1=O [Compound 785, MRS 1754]	98
COc1cc2c(cc1O)CC[C@@H]1[C@@H]2CC[C@]2(C)[C@@H](O)CC[C@@H]12 [Compound 786, 2-methoxyestradiol]	99

SMILES	Compound effect (percent receptor signaling in presence of test compound, relative lux units relative to the SCH23390 control)
Nc1ncnc2c1ncn2[C@@H]1O[C@H](COP(=O)(O)CP(=O)(O)OP(=O)([O-])[O-])[C@H](O)C1O.[Li+].[Li+] (stereo partly drawn) [Compound 788, alpha,beta-Methylene adenosine 5'-triphosphate dilithium]	97
COc1ccc(OC)c(C(O)C(C)N)c1 (stereo not shown) [Compound 789, Methoxamine hydrochloride]	92
O=C1c2c(O)ccc(O)c2C(=O)c2c(NCCNCCO)ccc(NCCNCCO)c21 [Compound 790, Mitoxantrone]	18
COc1ccc2[nH]cc(CCN)c2c1.Cl [Compound 791, O-Methylserotonin hydrochloride]	118
C[Se]C[C@H](N)C(=O)O.Cl [Compound 792, Se-(methyl)selenocysteine hydrochloride]	129
CC(C)[C@H](NC(=O)OCc1ccccc1)C(=O)N[C@H](C=O)Cc1ccccc1 [Compound 793, MDL 28170] (Cbz-Val-Phe-aldehyde)	96
[H]/N=C(/NC)NCCC[C@H](N)C(=O)O [Compound 795, NG-Monomethyl-L-arginine acetate]	94
CN1CC[C@]2(CCN3CCc4c(oc5ccccc45)[C@@H]3C2)N(C)C1=O [Compound 796, MK-912]	73
Cc1nc(N=Nc2ccc(C(=O)O)cc2)c(COP(=O)(O)O)c(C=O)c1O [Compound 798, MRS 2159]	91
NC(=O)COc1c(F)cc(SCCNS(=O)(=O)c2ccccc2)cc1F [Compound 800, 2,6-Difluoro-4-[2-(phenylsulfonylamino)ethylthio]phenoxyacetamide]	89
CC#C[C@]1(O)CC[C@H]2[C@@H]3CCC4=CC(=O)CCC4=C3[C@@H](c3ccc(N(C)C)cc3)C[C@@]21C [Compound 801, Mifepristone]	94
C[C@](N)(Cc1ccc(O)cc1)C(=O)O [Compound 802, L-alpha-Methyl-p-tyrosine]	100
CCOC(=O)C1=C(C)NC(=S)NC1c1cccc(O)c1 (stereo not shown) [Compound 803, Monastrol]	103
Cn1ccnc1 [Compound 804, 1-Methylimidazole]	100
CNC1(C)C2CCC(C2)C1(C)C (stereo not shown) [Compound 805, Mecamylamine hydrochloride]	114
CC12CC3CC(C)(C1)CC(N)(C3)C2 [Compound 807, Memantine hydrochloride]	91
CN(N=O)c1ccc(O)c(O)c1 [Compound 808, Me-3,4-dephostatin]	101
CN(C)c1ccc(O)c2c1C[C@H]1C[C@H]3[C@H](N(C)C)C(O)=C(C(N)=O)C(=O)[C@@]3(O)C(O)=C1C2=O [Compound 809, Minocycline hydrochloride]	94
CCCN(CCC)C(=O)C(CCC(=O)O)NC(=O)c1ccccc1 (stereo not shown) [Compound 812, Proglumide]	97
COc1ccccc1CNCCCCCCNCCCCCCCCNCCCCCCNCc1ccccc1OC [Compound 815, Methoctramine tetrahydrochloride]	66
C[C@@]12N[C@@H](Cc3ccccc31)c1ccccc12.O=C(O)/C=C\C(=O)O [Compound 817, (-)-MK-801 hydrogen maleate]	98

Same assay, conditions: 10 µM compound, 300 nM dopamine, 2 hr; hit = compound effect <20

SMILES	Compound effect (percent receptor signaling in presence of test compound, relative lux units relative to the SCH23390 control)
CSC(=N)N.CSC(=N)N.O=S(=O)(O)O [Compound 756, S-Methylisothiourea hemisulfate]	99%
C[C@](N)(CCP(=O)(O)O)C(=O)O.Cl [Compound 781, (S)-MAP4 hydrochloride]	100%
Cl.NCCS [Compound 787, Cysteamine hydrochloride]	94%
COc1ccc(NC(=O)c2ccc(-c3ccc(-c4noc(C)n4)cc3C)cc2)cc1N1CCN(C)CC1.Cl [Compound 799, GR 127935 hydrochloride]	90%
CNCCNS(=O)(=O)c1cccc2cnccc12.Cl.Cl [Compound 811, H-8 dihydrochloride]	43%

Same assay, conditions: read-out: % of the SCH23390 effect (percent inhibition of receptor response relative to the SCH23390 control)

SMILES	inhibition at 10 µM
O=C1c2c(O)ccc(O)c2C(=O)c2c(NCCNCCO)ccc(NCCNCCO)c21 [Compound 790, Mitoxantrone]	83%
